Laboratory results reported in the supplement of paper PMC6045584.
± gives the standard deviation of the averaged measurements.

Legend:
SUNITINIB = compound: CCN(CC)CCNC(=O)c1c(C)[nH]c(/C=C2\C(=O)Nc3ccc(F)cc32)c1C [SUNITINIB]; assay: surviving fraction relative to DMSO-only wells; higher = less growth inhibition; details: exposure time: 5 days
Method in brief: (§1)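 For each tumour cell line, log-phase cells were put into 384-well plates at 250–500 cells per well, then after 24 hours exposed continuously for five days to inhibitors at 0.5, 1, 5, 10, 50, 100, 500 and 1000 nM. Viability was assessed by CellTiter-Glo luminescence, with surviving fraction expressed relative to the median of DMSO-only wells. Lines were screened three times and retained only if replicate Pearson r exceeded 0.7 and median Z' exceeded 0.3.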

MK2206 = compound: NC1(c2ccc(-c3nc4ccn5c(=O)[nH]nc5c4cc3-c3ccccc3)cc2)CCC1 [MK2206]; assay: as above; details: exposure time: 5 days
Method in brief: as §1

Test System	surviving fraction (SUNITINIB; 0.5 nM)	surviving fraction (SUNITINIB; 1 nM)	surviving fraction (SUNITINIB; 10 nM)	surviving fraction (SUNITINIB; 50 nM)	surviving fraction (SUNITINIB; 100 nM)	surviving fraction (SUNITINIB; 500 nM)	surviving fraction (SUNITINIB; 1000 nM)	surviving fraction (MK2206; 0.5 nM)	surviving fraction (MK2206; 1 nM)	surviving fraction (MK2206; 5 nM)	surviving fraction (MK2206; 10 nM)	surviving fraction (MK2206; 50 nM)	surviving fraction (MK2206; 100 nM)	surviving fraction (MK2206; 500 nM)	surviving fraction (MK2206; 1000 nM)	surviving fraction (SUNITINIB; 5 nM)
SUM149.B1*.S BREAST	0.877 ± 0.07	0.786 ± 0.039	0.437 ± 0.023	0.988 ± 0.02	0.873 ± 0.022	0.789 ± 0.02	0.27 ± 0.0057	1.08 ± 0.057	1.14 ± 0.093	1.12 ± 0.034	1.09 ± 0.076	1.05 ± 0.058	1.07 ± 0.045	0.998 ± 0.056	1.06 ± 0.036	–
SUM159 BREAST	–	0.9683 ± 0.0076	0.927 ± 0.06	0.914 ± 0.12	–	0.839 ± 0.13	0.548 ± 0.11	1.08 ± 0.04	1.093 ± 0.0081	1.07 ± 0.024	1.11 ± 0.03	1.06 ± 0.015	1.08 ± 0.02	1.09 ± 0.029	1.08 ± 0.018	–
SYO1 SYNOVIAL	0.789 ± 0.035	0.609 ± 0.092	0.313 ± 0.13	0.819 ± 0.013	0.768 ± 0.036	0.52 ± 0.014	0.0887 ± 0.054	0.95 ± 0.012	0.975 ± 0.05	0.953 ± 0.022	1 ± 0.028	0.905 ± 0.032	0.885 ± 0.066	0.748 ± 0.051	0.702 ± 0.036	0.664 ± 0.03
T47D BREAST	0.93 ± 0.037	0.896 ± 0.059	0.817 ± 0.034	1.11 ± 0.027	1.13 ± 0.038	1.13 ± 0.04	0.985 ± 0.077	1.04 ± 0.03	1.06 ± 0.064	1 ± 0.036	0.945 ± 0.027	0.755 ± 0.032	0.654 ± 0.042	0.482 ± 0.021	0.449 ± 0.027	0.911 ± 0.018
U2OS BONE	0.882 ± 0.039	0.893 ± 0.032	–	0.956 ± 0.026	0.94 ± 0.038	0.549 ± 0.014	0.262 ± 0.0072	0.992 ± 0.017	1.03 ± 0.051	1.03 ± 0.027	1.05 ± 0.026	0.991 ± 0.015	0.941 ± 0.035	0.815 ± 0.0053	0.731 ± 0.055	0.95 ± 0.032
VCAP PROSTATE	0.976 ± 0.065	1 ± 0.088	1.02 ± 0.038	1.06 ± 0.077	1.09 ± 0.099	0.734 ± 0.034	0.519 ± 0.06	0.898 ± 0.12	0.848 ± 0.073	0.928 ± 0.069	0.936 ± 0.054	0.834 ± 0.13	0.754 ± 0.093	0.507 ± 0.066	0.362 ± 0.017	1.09 ± 0.07
VP229 BREAST	0.708 ± 0.076	0.675 ± 0.1	0.709 ± 0.065	0.955 ± 0.12	0.964 ± 0.038	0.762 ± 0.064	0.364 ± 0.051	1.1 ± 0.13	1.19 ± 0.16	1.19 ± 0.14	1.18 ± 0.15	1.07 ± 0.14	0.909 ± 0.18	0.713 ± 0.055	0.658 ± 0.12	0.709 ± 0.04
YAMATO SYNOVIAL	–	0.392 ± 0.031	0.0847 ± 0.0081	–	0.583 ± 0.021	0.588 ± 0.046	0.0633 ± 0.0023	1.13 ± 0.13	1.12 ± 0.023	1.16 ± 0.1	1.08 ± 0.063	0.84 ± 0.022	0.708 ± 0.036	0.521 ± 0.01	0.482 ± 0.027	0.586 ± 0.058
ZR751 BREAST	–	1.1 ± 0.16	–	1.31 ± 0.25	–	1.22 ± 0.16	–	0.962 ± 0.026	1.04 ± 0.088	0.678 ± 0.065	0.734 ± 0.064	0.407 ± 0.024	0.424 ± 0.027	0.308 ± 0.029	0.317 ± 0.029	1.15 ± 0.083
